Reference: article PMC12455572, “Amphipathic Proline-Rich Cell Penetrating Peptides for Targeting Mitochondria” (ACS Chemical Biology, 2025)
Entries after “also recorded” stand apart in the source; their conditions may differ. Where a SMILES comes first, the peptide text is derived from it. [ ]: non-standard residue; d: D form. The star is where a group is joined. 5FAM = O=C1OC2(c3ccc(O)cc3Oc3cc(O)ccc32)c2ccc(C(=O)*)cc21; Pro(cis-4-guanidino) = NC(N)=N[C@@H]1CN[C@H](C(=O)O)C1; Cha = N[C@@H](CC1CCCCC1)C(=O)O; Ahx = NCCCCCC(=O)O

Columns and labels:
[1] = tested on: MCF-7 cells; assay: Confocal microscopy of live cells: cellular uptake and intracellular localization; type: cell-based; conditions: live MCF-7 cells; for Cellular uptake and intracellular localization (confocal microscopy): 1 h, 37 °C, DMEM + 1% FBS; for Intracellular localization after 24 h rest (confocal microscopy, Figure S7): 1 h incubation at 37 °C, washing, 24 h rest in DMEM + 10 % FBS, concentration not given
Procedure: MitoTracker Deep Red was used as a counter stain for mitochondria and Hoechst 33342 for the nucleus. […] To explore whether PPII-helicity is key for mitochondrial localization, we prepared peptide CF-Ahx-(ChaRR)3-NH2 with Arg instead of Gup residues. This control peptide features a flexible conformation as judged by CD spectroscopy (Figure S1B). […] These findings show the importance of the secondary structure of the CPP for subcellular organelle localization.
MCF-7 cells were seeded in a 8-μwell Ibidi plate at 25′000 cells/well in DMEM (100 μL, 10% FCS) and allowed to adhere overnight. The medium was removed, the cells were washed with PBS (200 μL, 1x) and incubated with the peptide solution at 20 μM, 10 μM, 5 μM or 2.5 μM in DMEM (200 μL, 1% FCS) for 1 h at 37 °C. The medium was removed, and the cells were washed with PBS (200 μL, 2x). MitoTracker Deep Red was distributed at 20 nM in DMEM (200 μL, 1% FBS) and the cells were incubated at 37 °C for 25 min. The medium was removed, and the cells were washed with PBS (200 μL, 2x). Hoechst333342 was distributed at 2 μM in DMEM (200 μL, 1% FBS) and the cells were incubated at 37 °C for 5 min. The cells were washed with PBS (200 μL, 2x), and FluoroBrite medium (200 μL) was added. The live cells were monitored on the confocal microscope at 37 °C, 5% CO2.
For the cells subjected to a 24 h rest period, the FluoroBrite medium was exchanged for DMEM (200 μL, 10% FBS) after the initial imaging, and the cells were kept in this medium for 24 h. The culture medium was then exchanged for FluoroBrite DMEM, and the cells were imaged again.
Fluorescence images of cells were collected using a Nikon Eclipse T1 (inverse) microscope equipped with a Yokogawa Confocal Scanner Unit CSU-W1-T2, containing a spinning disk (50 µm). The microscope is equipped with two EMCCD Andor iXon Ultra cameras. Emission in the blue channel (405 nm) was filtered with a 450/50 bandpass filter, emission in the green channel (488 nm) was filtered with a 525/50 bandpass, and the emission in the red channel (641 nm) was filtered with a 708/75 bandpass filter. Fluorescence images were obtained using an oil-immersion objective with a magnification of 100 × 1.4 CFI Plan Apo Oil.
Each experiment was repeated at least three times. The images acquired were adjusted using ImageJ2 software. Correlation coefficients were determined on entire images using JaCOP plugin.1 […]
MCF-7 cells were seeded in a 8-µwell Ibidi plate at 25’000 cells/well in DMEM (100 µL, 10% FCS) and allowed to adhere overnight. The medium was removed. The cells were washed with PBS (200 µL, 1x) and incubated with the peptide solution at 20 µM, 10 µM, 5 µM, or 2.5 µM in DMEM (200 µL, 1% FCS) for 1 h at 37 °C. The medium was removed, and the cells were washed with PBS (200 µL, 2x).
For imaging of mitochondria, MitoTracker Deep Red was added as described in the manuscript. For imaging of endosomes/lysosomes, Ly s o Tr a c k e r Deep Red was added (200 µL, 20 nM in DMEM, 1% FBS) followed by incubation of the cells at 37 °C for 25 min. The medium was removed, and the cells were washed with PBS (200 µL, 2x). For imaging of the nucleus, Hoechst333342 was added at (200 µL, 2 µM in DMEM, 1% FBS) followed by incubation of the cells at 37 °C for 5 min. The cells were washed with PBS (200 µL, 2x), and FluoroBrite medium (200 µL) was added. The live cells were monitored on the confocal microscope […]
MCF-7 cells were seeded in a 96-well plate at 7’500 cells/well in cell culture medium (200 µL, 10% FCS), and allowed to adhere overnight. The medium was removed, the cells were washed with PBS (100 µL, 1x) and incubated with the peptide solution at 20 µM, 10 µM, 5 µM, or 2.5 µM in DMEM (200 µL, 1% FCS) for 1 h at 37 °C. The medium was removed, and the cells were washed with PBS (100 µL, 1x). The MTT solution in DMEM (110 µL, 1.2 mM, 1% FBS) was added. The cells were incubated for 3 h at 37 °C. The […]

[2] = Stability of the peptides in cell lysate; type: in vitro ADME; conditions: 200 µM peptide, 37 °C, RP-HPLC at 488 nm; for Stability in MCF-7 cell lysate: MCF-7 cell lysate 1 mg/mL protein in PBS, time points 0 min, 1 h and 24 h
Procedure: MCF-7 cells were grown to confluency in a T-175 flask. Cells were washed with PBS (12 mL, 4 °C) and subsequently scraped off into PBS (7 mL, 4 °C) and collected in a Falcon tube. The suspension was then sonicated for 3 sec at an amplitude of 30% followed by a 30 sec rest period, and the procedure was repeated three time. The insoluble fraction was removed by centrifugation for 10 min at 12.000 rcf, at 4 °C and the supernatant was transferred to a new tube. […]
Stability of the peptides in cell lysate
The peptides were added (final concentration of 200 µM) to the MCF-7 cell lysate, with a protein concentration adjusted to 1 mg/mL with PBS. Immediately after addition of the peptide to the cell lysate, a sample (80 µL) was taken as the t = 0 min time point. The sample was diluted in MeCN (1:1), kept on ice for 5 min and centrifuged (12.000 rcf, 10 min, 4 °C). The supernatant was filtered and analyzed by analytical RP-HPLC (at 488 nm) using the standard conditions (gradient 70 % to 45 % of B over 20 min at 25 °C).
The stability of the peptides was monitored at time points 0 min, 1 h and 24 h.

[3] = concentration not stated at the place or given within the value

Molecule | Cellular uptake and intracellular localization (confocal microscopy) ([1]; 5 μM peptide) | Cellular uptake and intracellular localization (confocal microscopy) [1, 3] | Intracellular localization after 24 h rest (confocal microscopy, Figure S7) [1] | metabolised at 24 h ([2]; human, cells or culture medium, lysate 1 mg/mL protein in PBS, after 24 h incubation, read-out: Fraction degraded in MCF-7 cell lysate) | Cellular uptake and intracellular localization (confocal microscopy) ([1]; 20 μM peptide) | Stability in MCF-7 cell lysate [2] | Cellular uptake and intracellular localization (confocal microscopy) ([1]; 10 μM peptide, MitoTracker Deep Red and Hoechst 33342 counterstain)
N=C(N)N[C@H]1C[C@@H](C(=O)N2C[C@@H](NC(=N)N)C[C@H]2C(=O)N[C@@H](CC2CCCCC2)C(=O)N2C[C@@H](NC(=N)N)C[C@H]2C(=O)N2C[C@@H](NC(=N)N)C[C@H]2C(=O)N[C@@H](CC2CCCCC2)C(=O)N2C[C@@H](NC(=N)N)C[C@H]2C(=O)N2C[C@@H](NC(=N)N)C[C@H]2C(=O)N[C@@H](CC2CCCCC2)C(N)=O)N(C(=O)[C@H](CC2CCCCC2)NC(=O)CCCCCNC(=O)c2ccc3c(c2)C(=O)OC32c3ccc(O)cc3Oc3cc(O)ccc32)C1 [(ChaZZ)3-Cha, CF-Ahx-(ChaZZ)3-Cha-NH2] ({5FAM-Ahx}-[Cha][Pro(cis-4-guanidino)][Pro(cis-4-guanidino)][Cha][Pro(cis-4-guanidino)][Pro(cis-4-guanidino)][Cha][Pro(cis-4-guanidino)][Pro(cis-4-guanidino)][Cha]-NH2) | intracellular localization | localized in mitochondria, endosomes, and the plasma membrane; also recorded: localized in the mitochondria and not the nucleus but was also trapped in endosomes | localized predominantly in the mitochondria | ~6% | – | – | –
CF-Ahx-(ChaZZ)2-Cha-NH2 | – | localized in mitochondria and the cytoplasm | localized in the cytoplasm as punctuated fluorescence and remains slightly in the mitochondria | – | strong mitochondrial colocalization at 20 μM (Figure D) with limited endosomal entrapment | degraded in the MCF-7 cell lysate over time | –
CF-Ahx-(ChaZZ)3-NH2 | low uptake; also recorded: no fluorescence was visible; also recorded: minimal fluorescence | localized in the cytoplasm, the nucleoli, and the mitochondria at concentrations of 10 μM and higher | localized predominantly in the mitochondria | – | – | stable | localizes in the mitochondria; also recorded: localized in the mitochondria as well as in the cytoplasm and the nucleoli
